pEC50: −log10 of the molar value. Converted amounts (≈) assume the structure as drawn. Where two headings read alike, the source gives them in different places.
Tests used:
hPPARδ = biological target: T1, hPPARδ (Homo sapiens, UniProt Q03181); experiment: PPARδ luciferase reporter cell-line assay (Indigo Biosciences); format: cell-based
T1 construct: expressed in transfected cells
T1 sequence (Q03181 1-441): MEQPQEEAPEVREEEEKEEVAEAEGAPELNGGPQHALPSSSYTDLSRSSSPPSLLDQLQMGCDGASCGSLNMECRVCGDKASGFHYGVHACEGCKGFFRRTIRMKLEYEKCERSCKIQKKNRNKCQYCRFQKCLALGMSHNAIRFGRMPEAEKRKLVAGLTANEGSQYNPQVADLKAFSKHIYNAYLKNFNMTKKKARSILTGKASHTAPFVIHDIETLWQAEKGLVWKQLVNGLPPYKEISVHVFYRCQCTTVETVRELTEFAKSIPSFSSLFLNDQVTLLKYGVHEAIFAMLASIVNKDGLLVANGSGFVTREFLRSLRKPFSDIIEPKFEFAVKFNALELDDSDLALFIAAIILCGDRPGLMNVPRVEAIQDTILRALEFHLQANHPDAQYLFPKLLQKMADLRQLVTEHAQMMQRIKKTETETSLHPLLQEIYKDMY
Method: (§1) Luciferase assays were conducted on isogenic cell-lines engineered to overexpress either PPARδ or PPARγ with expression of the requisite luciferase reporter gene dependent upon exogenous activation of each isoform.

hPPARγ = biological target: T2, hPPARγ (Homo sapiens, UniProt P37231); experiment: PPARγ luciferase reporter cell-line assay (Indigo Biosciences); format: cell-based
T2 construct: expressed in transfected cells
T2 sequence (P37231 1-505): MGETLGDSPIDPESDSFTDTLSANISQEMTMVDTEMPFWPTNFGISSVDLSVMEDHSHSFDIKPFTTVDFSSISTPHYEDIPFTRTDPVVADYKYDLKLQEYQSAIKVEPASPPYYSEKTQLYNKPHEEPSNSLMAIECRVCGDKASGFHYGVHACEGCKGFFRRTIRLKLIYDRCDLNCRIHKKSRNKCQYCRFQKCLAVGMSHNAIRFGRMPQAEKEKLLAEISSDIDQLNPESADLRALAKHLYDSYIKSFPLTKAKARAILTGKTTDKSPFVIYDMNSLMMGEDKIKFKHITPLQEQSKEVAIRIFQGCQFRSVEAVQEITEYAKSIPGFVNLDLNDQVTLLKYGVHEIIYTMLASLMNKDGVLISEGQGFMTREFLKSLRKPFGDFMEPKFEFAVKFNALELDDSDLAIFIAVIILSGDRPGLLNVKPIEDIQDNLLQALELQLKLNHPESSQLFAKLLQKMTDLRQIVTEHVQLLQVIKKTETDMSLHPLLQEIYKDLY
Method: as §1

[1] = system: PPARα expression in 661W cells; experiment: Western blot analysis of PPARα expression in 661W cells; format: cell-based, mouse; details: 24 h, 10, 50 and 100 μM
Method: (§2) To further confirm that this 4-benzyloxy-benzylamino chemotype acts as a PPARα agonist, we evaluated compound 10 in various biochemical assays. […] Compound 10 was also evaluated in an in vitro wound healing assay utilizing human retinal capillary endothelial cells (HRCEC).

[2] = system: PPARα target genes (Acadm, Cpt1a, Fabp3, Slc25a20) in 661W cells; experiment: RT-PCR of PPARα target genes in 661W cells; format: cell-based, mouse; details: 24 h
Method: as §2

[3] = system: retinal vascular leakage in diabetic rats; experiment: STZ-rat model of diabetic retinopathy, retinal permeability; format: in vivo
Method: 7-8 week-old male Brown Norway rats were injected with streptozotocin (STZ, 55 mg/kg).

[4] = system: liver phenotype of STZ diabetic rats; experiment: STZ-rat model, liver phenotype and toxicity; format: in vivo
Method: 7-8 week-old male Brown Norway rats were injected with streptozotocin (STZ, 55 mg/kg). Two weeks after STZ injections, daily treatment (i.p. injection) with ASD091 or FenoFA commenced and lasted for 26-28 days. ≠P<0.05 (vs. FenoFA), *P<0.05 (vs. STZ-DMSO).

hPPARα = biological target: T3, hPPARα (Homo sapiens, UniProt Q07869); experiment: PPARα luciferase cell reporter assay (Indigo Biosciences); format: cell-based; details: for Fold (5 μM): fold increase in luciferase compared to DMSO negative control / Fold (50 μM): fold increase in luciferase compared to DMSO negative control: structure IIa compounds (Table 6); for ratio of agonism compared to GW590735 (value in parentheses): hPPARα luciferase reporter cell-line; for PPAR isoform selectivity profile: hPPARα vs hPPARδ and hPPARγ luciferase cell-lines; for dose-dependent PPARα agonism in cell-based luciferase reporter assay: FIGS. 4 and 7
T3 sequence (Q07869 1-468): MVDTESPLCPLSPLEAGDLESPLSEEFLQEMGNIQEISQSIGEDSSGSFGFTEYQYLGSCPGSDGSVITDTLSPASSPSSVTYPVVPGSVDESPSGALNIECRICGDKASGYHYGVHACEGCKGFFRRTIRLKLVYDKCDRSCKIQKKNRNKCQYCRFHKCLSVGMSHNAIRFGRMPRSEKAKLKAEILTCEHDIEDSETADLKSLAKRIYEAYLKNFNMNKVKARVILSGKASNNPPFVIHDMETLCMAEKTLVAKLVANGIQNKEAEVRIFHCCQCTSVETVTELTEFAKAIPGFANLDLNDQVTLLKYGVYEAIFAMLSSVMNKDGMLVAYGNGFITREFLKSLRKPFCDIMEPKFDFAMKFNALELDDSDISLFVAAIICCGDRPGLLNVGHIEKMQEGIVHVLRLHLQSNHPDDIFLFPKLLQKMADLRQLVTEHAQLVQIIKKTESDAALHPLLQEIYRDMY
Excerpt: With the focused subset of analogs in-hand, our efforts shifted to the evaluation of these derivatives for PPARα agonism. Preliminary evaluation utilized a commercially available PPARα luciferase cell reporter assay (Indigo Biosciences). The cell-line employed is engineered to constitutively express high-levels of hPPARα. Upon interaction with an agonist, hPPARα translocates to the nucleus, binds to the PPRE, and upregulates gene transcription, including the inserted luciferase gene. Luciferase activity is detected indirectly through quantification of oxyluciferin production.

[5] = Solubilities of various compounds; format: physicochemical
[6] = Table 6, cellular luciferase activity, read-out: δ EC50
[7] = luciferase reporter cell-line, triplicate, single experiment, read-out: hPPARδ EC50
[8] = Table 6, cellular luciferase activity, read-out: γ EC50
[9] = luciferase reporter cell-line, triplicate, single experiment, read-out: hPPARγ EC50
[10] = STZ diabetic Brown Norway rats, daily i.p. injection 26-28 days
[11] = inferred from efficacy after systemic administration
[12] = Table 6, cellular luciferase activity, read-out: α EC50
[13] = luciferase reporter cell-line, triplicate, single experiment, read-out: hPPARα EC50
[14] = PBS, pH 7.4, aqueous buffer, read-out: PBS Solubility pH 7.4
[15] = water, H2O, read-out: H2O Solubility

SMILES	pEC50 (hPPARδ; [6])	pEC50 (hPPARδ; [7])	pEC50 (hPPARγ; [8])	pEC50 (hPPARγ; [9])	Fold (5 μM): fold increase in luciferase compared to DMSO negative control (hPPARα)	Fold (50 μM): fold increase in luciferase compared to DMSO negative control (hPPARα)	also measured
COc1ccc(COc2ccc(CNc3cccc(C(=O)O)c3)cc2)cc1 [Compound 91]	< 4.00	< 4.00	< 4.00	< 4.00	–	–	expression of PPARα (Western blot, densitometry) [1]: induced the expression of PPARα in a dose-dependent manner; expression of PPARα target genes (Acadm, Cpt1a, Fabp3, Slc25a20) [2]: induces the expression of various PPARα target genes; retinal vascular leakage [3, 10]: reduces retinal vascular leakage in diabetic rats; bioavailability [3, 11]: is bioavailable; blood-ocular barrier crossing [3, 11]: crosses blood-ocular barrier and reaches the retina; signs of hepatomegaly [4, 10]: seems to lack signs of hepatomegaly; observable toxicity ([4]; daily injection for one-month): no observable toxicity
COc1ccc(COc2ccc(CNc3cccc(C(=O)O)c3)c(OCc3ccc(OC)cc3)c2)cc1 [Compound 92]	< 4.00	< 4.00	< 4.00	< 4.00	8 fold	21 fold	pEC50 (hPPARα; [12]): 5.29; ratio of agonism compared to GW590735 (value in parentheses) (hPPARα): 1.1; PPAR isoform selectivity profile (hPPARα): maintains the selectivity; pEC50 (hPPARα; [13]): 5.29
COc1ccc(COc2ccc(CNc3cccc(OC(C)(C)C(=O)O)c3)cc2)cc1 [Compound 114]	4.74	4.41	4.41	4.74	–	–	–
COc1ccc(COc2ccc(CNc3cccc(OC(C)(C)C(=O)O)c3)c(OCc3ccc(OC)cc3)c2)cc1 [Compound 115]	5.25	5.05	5.05	5.25	1 fold	41 fold	improvement in potency on adding third B-ring substituent (hPPARα; 28 compared with 22): 10 fold; pEC50 (hPPARα; [12]): 5.68; ratio of agonism compared to GW590735 (value in parentheses) (hPPARα): 1.4; PPAR isoform selectivity profile (hPPARα): pan-agonist profile was maintained; pEC50 (hPPARα; [13]): 5.68
Cc1cc(CNc2cccc(C(=O)O)c2)ccc1OCc1ccc(F)cc1 [Compound 190]	< 4.00	–	< 4.00	–	–	–	dose-dependent PPARα agonism in cell-based luciferase reporter assay (hPPARα): exhibits dose-dependent activity; dose-dependent PPARα agonism in cell-based luciferase reporter assay (hPPARα; listed as A190): dose-dependent agonism of PPARα; pEC50 (hPPARα; [12]): 7.52; pEC50 (hPPARα; text b235, read-out: EC50 (PPARα)): 7.43
O=C(O)c1cccc(NCc2ccc(OCc3ccccc3F)cc2)c1 [Compound 195]	–	–	–	–	34 fold	45 fold	–
Cc1cc(CNc2cccc(C(=O)O)c2)ccc1OCc1cc(F)cc(F)c1 [Compound 198]	–	–	–	–	88 fold	84 fold	–
Cc1cc(CN(C)c2cccc(C(=O)O)c2)ccc1OCc1ccc(F)cc1 [Compound 199]	–	–	–	–	102 fold	131 fold	–
CC(C)(Oc1ccc(C(=O)c2ccc(Cl)cc2)cc1)C(=O)O [Fenofibric acid, fenofibric acid, reference compound]	–	–	–	–	–	–	solubility [5, 14]: 278 µM (≈ 88.6 µg/mL); solubility [5, 15]: 93 µM (≈ 29.6 µg/mL)
Cc1cc(CNc2cccc(C(=O)OCOP(=O)([O-])O)c2)ccc1OCc1ccc(F)cc1.[Na+] [ZH-2021-162]	–	–	–	–	–	–	solubility [5, 14]: 292 µM; solubility [5, 15]: 318 µM
Cc1cc(CNc2cccc(C(=O)OCOP(=O)(O)O)c2)ccc1OCc1ccc(F)cc1 [ZH-2021-164]	–	–	–	–	–	–	solubility [5, 14]: 316 µM (≈ 150 µg/mL); solubility [5, 15]: 284 µM (≈ 135 µg/mL)

Reference: patent US12319708B2, “Agonists of peroxisome proliferator-activated receptor alpha (PPARα) and methods of use” (The Board of Regents of the University of Oklahoma, priority 2018, dated 2025)
